# Results taken from US11168052B2, “Carbamate derivative compounds, processes for preparing them and their uses” (BIO-PHARM SOLUTIONS CO., LTD., priority 2016, dated 2021).
# Tests used:
# ICR mice on hot plate = assay: Hot-plate test; type: in vivo; settings: Mus musculus, po, orally, withdrawal latency
# Procedure: To examine the pain relief effect of the carbamate compounds, a hot-plate test was conducted in referring to Current Protocols in Neuroscience; Behavioral Neuroscience Unit 8.9.
# (§1) ICR mice (male, 25-28 g; Orient Bio, Korea) were habituated before test (in test room) for 1 hour. Animals were fasted 2 hr before administration of compounds. Compounds were orally administered at the three dose, 10 ul/g, by bodyweight (n=4-6/group). All compounds were dissolved in a vehicle of 30% (v/v) PEG 400 or 20% (v/v) Tween 80. The control group was treated the vehicle without compounds.
# 0.25-2.0 hr after the administration of compounds, the mice were put on a hot plate pre-heated to 55±1 (Hu, X. et al, 2008), and then, the withdrawal latency time was measured (cut-off time: 30 sec) until the point when each mouse was taking a paw off from the plate, shaking, licking a paw or hind leg, or jumping from the plate.
# [1] = test system: MES (electroshock) seizure in mice; assay: Anti-epilepsy activity, MES test in mouse; type: in vivo, ICR mice; settings: po
# Procedure, shortened: (§2)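 Male ICR mice (19–25 g) and male SD rats (100–130 g) dosed orally with compound in 20% Tween 80/saline, then shocked via corneal electrodes at peak time (mice 50 mA, rats 150 mA; 60 Hz, 0.2 sec). Three doses used; ED50 for seizure protection by Litchfield–Wilcoxon log-probit.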
# [2] = test system: ICR mice, tail-flick analgesia meter; assay: Tail-flick test; type: in vivo; settings: orally, withdrawal latency
# Procedure: To examine the pain relief effect of the carbamate compounds, a tail-flick test was conducted, referring to Current Protocols in Neuroscience; Behavioral Neuroscience Unit 8.9.
# as §1, with “25-30g;” for “25-28 g;”, “Each of Compound was” for “Compounds were”, “1-3” for “three”
# After the administration of compounds, the mice tail were put on a tail-flick analgesia meter. To avoid tissue damage, maximal exposure time to pain stimuli was restricted to 15 s. The withdrawal latency was measured to the time to the point when each mouse responded. The relative values compared to the control (% control) were calculated.
# The relative values compared to the sham were calculated and shown in Table 7, which show effect of the compound of examples on tail-flick test in Mice.
# [3] = test system: acetic acid-induced writhes in ICR mice; assay: Writhing test (acetic acid); type: in vivo; settings: Mus musculus, po
# Procedure: To examine the pain relief effect of the carbamate compounds, a writhing test was conducted, referring to Fischer, L. G. et al. (2008).
# as §1, with “24-28g;” for “25-28 g;”, “Each of compounds was” for “Compounds were”, “bw (n=3-5/group).” for “by bodyweight (n=4-6/group).”
# 0.2-2 hour after the administration of compounds, 0.6% acetic acid at the dose of 10 ul/g by bodyweight was injected into the mice Animals were habituated in the cage for 5 min. 5 min after habituation, the number of writhes (abdominal constriction) was counted for 15 min, referring to Korzeniewska-Rybicka, I. et al. (1998) and compared with that of a control.
# The relative values compared to the control (% control) were calculated and shown in […]
# [4] = test system: MES (electroshock) seizure in rats; assay: Anti-epilepsy activity, MES test in rats; type: in vivo, SD rats; settings: Rattus norvegicus, po
# Procedure, shortened: as §2
# [5] = test system: Picrotoxin (PIC)-induced clonic seizure in mice; assay: Chemical induced seizure model (PIC); type: in vivo, ICR mice
# Procedure: Picrotoxin (PIC) were used to induce the behavioral seizures in the experiments. Male ICR mice (purchased from Orient Bio Inc. Korea) of body weight 19-26 g (mice) were used for these studies. The test materials were administered intraperitoneal (ip) route in a volume of 10 ul/g (mice) weight in rats or mice, respectively. Pharmacological effects of the test materials were evaluated to compared test groups (n=6) with a control group (n=6). Control group was administrated vehicle, only. The peak time was determined by administration of test material's random dose for 0.5, 1, 2, 4 hour. The time that the most protect was defined as a peak time and ED50 was determined by other dose administration at the peak time. Chemical (PIC) was dissolved in 0.9% saline and administered subcutaneously (s.c.) at its CD97 (convulsive dose 97%), the dose of Chemical (PIC) that produced clonic seizures in 97% into a loose fold of skin in the midline of the neck in a volume of 10 ul/g (mice) body weight. The animals were then transferred to observation cages and observed continuously for 45 min. Clonic seizure was elicited in approximately 97% of control group. Protection was defined as a complete absence of clonic seizure over the 45-min observation period. The effective dose of compound necessary to protect against generalized convulsive seizures to 50% of controls (i.e., ED50) was determined by log probit analysis using SPSS software program (SPSS Inc.). (Reference; White H. S., J. H. Woodhead, K. S. Wilcox, J. P. Stables, H. J. Kupferberg, and H. H. Wolf. General Principles; Discovery and Preclinical Development of Antiepileptic Drugs. In: R. H. Levy, R. H. Mattson, B. S. Meldrum, and E. Perucca, eds. Antiepileptic Drugs, 5th Ed. Lippincott Williams & Wilkins, Philadelphia 2002: pp. 36-48.) The obtained results are shown in following Table 10.
Structure (SMILES),ED50 (ICR mice on hot plate) [mg/kg],ED50 [1] [mg/kg],Tail-flick test Dose [2] [mg/kg],ED50 [3] [mg/kg],ED50 [4] [mg/kg],"ED50 ([5]; Mus musculus, ip, read-out: PIC(ip) ED50) [mg/kg]","PIC(ip) efficacy % ([5]; mice, dose 120 mg/kg)"
"NC(=O)O[C@@H]1CCc2cccc(Cl)c2[C@@H]1O [Example 1, (1S, 2R)-8-chloro-1-hydroxy-1,2,3,4-tetrahydronaphthalen-2-yl carbamate]",101,12.1,>150,46.1,5.9,23.7,–
"NC(=O)O[C@@H]1c2c(Cl)cccc2CC[C@@H]1O [Example 19, (1R, 2S)-8-chloro-2-hydroxy-1,2,3,4-tetrahydronaphthalen-1-yl carbamate]",> 100,22.4,>200,30,4.6,–,120 (16.6%)
